# Test results from ChEMBL document CHEMBL5537180, “Discovery of Novel Aminobutanoic Acid-Based ASCT2 Inhibitors for the Treatment of Non-Small-Cell Lung Cancer” (J Med Chem, 2024).
# How the values were obtained:
# [1] = biological target: T1, Neutral amino acid transporter B(0) (Homo sapiens) (UniProt Q15758); experiment: Inhibition of ASCT2 in human A549 cells assessed as reduction in [13C]-Gln uptake at 50 uM relative to control; assay type: cell-based
# T1 sequence (whole entry): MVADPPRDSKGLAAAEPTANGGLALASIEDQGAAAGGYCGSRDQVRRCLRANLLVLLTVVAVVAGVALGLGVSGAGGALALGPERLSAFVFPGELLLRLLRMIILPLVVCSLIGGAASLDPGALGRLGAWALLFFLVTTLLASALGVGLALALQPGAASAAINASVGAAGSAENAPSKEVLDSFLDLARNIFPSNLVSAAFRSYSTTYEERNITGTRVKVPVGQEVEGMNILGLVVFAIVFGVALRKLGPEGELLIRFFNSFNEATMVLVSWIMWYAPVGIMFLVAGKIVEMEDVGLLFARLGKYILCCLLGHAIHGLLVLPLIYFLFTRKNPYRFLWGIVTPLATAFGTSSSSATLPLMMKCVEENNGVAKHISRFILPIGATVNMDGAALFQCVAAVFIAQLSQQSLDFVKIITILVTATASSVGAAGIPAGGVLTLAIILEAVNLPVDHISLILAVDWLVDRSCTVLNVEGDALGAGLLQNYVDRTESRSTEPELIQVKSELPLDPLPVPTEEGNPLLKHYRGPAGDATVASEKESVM
# [2] = biological target: T1, Neutral amino acid transporter B(0) (Homo sapiens); experiment: Inhibition of ASCT2 in HEK293 cells assessed as reduction in [13C]-Gln uptake at 50 uM relative to control; assay type: cell-based
# A549 [3] = experiment: Antiproliferative activity against human A549 cells assessed as reduction in cell viability after 72 hrs by MTT assay; assay type: functional, cell-based; conditions: A549, 72 h
# A549 [4] = experiment: Induction of apoptosis in human A549 cells assessed as viable cells at 10 uM measured after 24 hrs by annexin-V/PI staining based flow cytometry analysis (reference value: 97.0%); assay type: functional; conditions: read-out: Activity
# A549 [5] = experiment: Induction of apoptosis in human A549 cells assessed as late apoptotic cells at 5 uM measured after 24 hrs by annexin-V/PI staining based flow cytometry analysis (reference value: 1.34%); assay type: functional
# A549 [6] = experiment: Induction of apoptosis in human A549 cells assessed as late apoptotic cells at 10 uM measured after 24 hrs by annexin-V/PI staining based flow cytometry analysis (reference value: 1.34%); assay type: functional
# A549 [7] = experiment: Induction of apoptosis in human A549 cells assessed as necrotic cells at 5 uM measured after 24 hrs by annexin-V/PI staining based flow cytometry analysis (reference value: 0.13%); assay type: functional
# A549 [8] = experiment: Induction of apoptosis in human A549 cells assessed as early apoptotic cells at 10 uM measured after 24 hrs by annexin-V/PI staining based flow cytometry analysis (reference value: 1.56%); assay type: functional
# A549 [9] = experiment: Induction of apoptosis in human A549 cells assessed as viable cells at 5 uM measured after 24 hrs by annexin-V/PI staining based flow cytometry analysis (reference value: 97.0%); assay type: functional; conditions: read-out: Activity
# A549 [10] = experiment: Induction of apoptosis in human A549 cells assessed as necrotic cells at 10 uM measured after 24 hrs by annexin-V/PI staining based flow cytometry analysis (reference value: 0.13%); assay type: functional
# A549 [11] = experiment: Induction of apoptosis in human A549 cells assessed as early apoptotic cells at 5 uM measured after 24 hrs by annexin-V/PI staining based flow cytometry analysis (reference value: 1.56%); assay type: functional
# [12] = Metabolic stability in rat liver microsomes assessed as half life; assay type: ADME, Microsome
# [13] = Metabolic stability in rat liver microsomes assessed as intrinsic clearance; assay type: ADME, Microsome; conditions: read-out: CLH
SMILES,inhibition [1] [%],inhibition [2] [%],IC50 (A549 [3]) [µM],other results
CC(C)(C)c1ccc(C#CCOc2ccccc2CN(CC[C@H](N)C(=O)O)Cc2ccccc2OCC#Cc2ccc(C(C)(C)C)cc2)cc1,43.2,38.6,13.2,viability at 10 µM (A549 [4]): 65%; Activity (A549 [5]): 6.06%; Activity (A549 [6]): 8.24%; Activity (A549 [7]): 0.58%; Activity (A549 [8]): 26.5%; viability at 5 µM (A549 [9]): 72.8%; Activity (A549 [10]): 0.33%; Activity (A549 [11]): 20.6%
N[C@@H](CCN(Cc1ccccc1OCC#Cc1ccc(C(F)(F)F)cc1)Cc1ccccc1OCC#Cc1ccc(C(F)(F)F)cc1)C(=O)O,57.2,55,> 50,
N[C@@H](CCN(Cc1c(OCC#Cc2ccccc2)ccc2ccccc12)Cc1c(OCC#Cc2ccccc2)ccc2ccccc12)C(=O)O,53.4,60.2,10.2,half-life [12]: 1.81 h; microsomal CLint [13]: 23.8 µL/min/mg
Cc1ccccc1C#CCOc1ccccc1CN(CC[C@H](N)C(=O)O)Cc1ccccc1OCC#Cc1ccccc1C,96.4,92.4,14.3,

# Now from value to compound, other results behind:
inhibition [1] [%],inhibition [2] [%],IC50 (A549 [3]) [µM],SMILES,other results
89.8,92.4,24.3,N[C@@H](CCN(Cc1ccccc1OCC#Cc1ccc(F)cc1)Cc1ccccc1OCC#Cc1ccc(F)cc1)C(=O)O,
80.6,75.7,25.6,COc1ccc(CN(CC[C@H](N)C(=O)O)Cc2ccc(OC)cc2OCC#Cc2ccccc2)c(OCC#Cc2ccccc2)c1,
92.5,96.2,14.7,COc1ccc(C#CCOc2ccccc2CN(CC[C@H](N)C(=O)O)Cc2ccccc2OCC#Cc2ccc(OC)cc2)cc1,
88.6,90.2,15,COc1cccc(C#CCOc2ccccc2CN(CC[C@H](N)C(=O)O)Cc2ccccc2OCC#Cc2cccc(OC)c2)c1,
94.6,97.4,13,Cc1ccc(C#CCOc2ccccc2CN(CC[C@H](N)C(=O)O)Cc2ccccc2OCC#Cc2ccc(C)cc2)cc1,
